Assay results taken from patent US10471154B2, “Spirocyclic indolone polyethylene glycol carbonate compound, composition, preparation method and use thereof” (priority 2016, dated 2019).
Converted amounts (≈) assume the structure as drawn. Marks after values point to notes of the source that are not given here.

Tests used:
[1] = test system: SJSA-1 xenografted tumor; assay: Inhibitory effect on the growth of SJSA-1 xenografted tumor in nude mice; type: in vivo; conditions: for Tumor volumes X ± SD (mm^3), End: End (21 days after inoculation), doxorubicin 3.0 mg/kg i.p. x6, rac-SIP 30.0 mg/kg gavage x9, SIP-PEG compounds 30.0 mg/kg i.p. x9, rac-SIP-MPEG-2000 50.0 mg/kg i.p. x9; for Tumor volumes X ± SD (mm^3), Start: Start of administration (8 days after inoculation); for inhibitory effect on tumor growth compared with PEG-free rac-SIP given by gastrointestinal administration: administered by injection, 30.0 mg/kg (rac-SIP-MPEG-2000 50.0 mg/kg); for Weights of Tumor X ± SD: tumor peeled off 21 days after inoculation; for Weights of Tumor X ± SD / Inhibition rate (%) on the basis of tumor volume / Inhibition rate (%) on the basis of tumor weight: doses and routes as in E5; for Inhibition rate (%) on the basis of tumor volume / Inhibition rate (%) on the basis of tumor weight: vs saline control; for Inhibition rate (%) on the basis of tumor volume: End
Experimental: 72 Female Balb/c/nu nude mice (weighting 15-19 g) were provided by Beijing Huafukang BioScience Co., Inc. Certificate No.: SOCK (Beijing) 2014-0004.
(§1) Doxorubicin: prepared in sterile physiological saline at a concentration of 0.3 mg/ml; the administration dosage was 3.0 mg/kg; and the administration volume was 10 ml/kg.
(§2) rac-SIP: prepared in a solvent consisting of 4% DMA, 30% PEG400, and 66% (by volume) sterile distilled water to a solution with a concentration of 1.5 mg/ml; the administration dosage was 30.0 mg/kg, and the administration volume was 20 ml/kg.
(§3) rac-SIP-PEG-2: prepared in a solvent consisting of polyoxyethylene castor oil:95% ethanol:sterile physiological saline (1.5:1.5:7 by volume) to drug solutions with concentrations of 1.5 mg/ml and 3.0 mg/ml. The administration dosages were 15.0 mg/kg and 30.0 mg/kg. The administration volume was 10 ml/kg.
(§4) rac-SIP-PEG-3: prepared in sterile physiological saline to a solution with a concentration of 3.0 mg/ml. The administration dose was 30.0 mg/kg. The administration volume was 10 ml/kg.
(§5) chiral-R-SIP-PEG-3: prepared in sterile physiological saline to a solution with a concentration of 3.0 mg/ml. The administration dose was 30.0 mg/kg. The administration volume was 10 ml/kg.
(§6) rac-SIP-PEG-7: prepared in sterile physiological saline to a solution with a concentration of 3.0 mg/ml. The administration dose was 30.0 mg/kg. The administration volume was 10 ml/kg.
(§7) The administration dose was 50.0 mg/kg. The administration volume was 10 ml/kg.
Doxorubicin: at a dose of 3.0 mg/kg, administered intraperitoneally, once every other day, for a total of 6 times.
rac-SIP: at a dose of 30.0 mg/kg, administered by gavage, once a day, 6 times a week, for a total of 9 times.
rac-SIP-PEG-2: at a dose of 30.0 mg/kg, administered intraperitoneally, once a day, 6 times a week, for a total of 9 times.
rac-SIP-PEG-3: at a dose of 30.0 mg/kg, administered intraperitoneally, once a day, 6 times a week, for a total of 9 times.
chiral-R-SIP-PEG-3: at a dose of 30.0 mg/kg, administered intraperitoneally, once a day, 6 times a week, for a total of 9 times.
rac-SIP-PEG-7: at a dose of 30.0 mg/kg, administered intraperitoneally, once a day, 6 times a week, for a total of 9 times.
(§8) Tumor cells (SJSA-1) were harvested under aseptic conditions, and were adjusted to a cell density of 1×10^7 cells/ml with sterile physiological saline. 0.2 ml was inoculated under the skin of the axilla of nude mice, and the tumor was grown to have a diameter of 1 cm. The tumor was removed under aseptic conditions and cut into tumor masses with a size of 2.0 mm×2.0 mm, and evenly inoculated under the skin of the axilla of the nude mice. When the tumor volume reached about 250 mm^3 (8 days after inoculation), the animals were administered in groups with 9 mice in each group, and the animals with poor tumor growth were excluded. The control group used physiological saline as a control. […] Body weight was weighted 3 times a week, and the length a and the width b of the tumor were measured with a vernier caliper, and the volume of the tumor was calculated according to the formula V=a×b^2/2, where a is the length of the tumor and b is the width of the tumor. 21 Days after the inoculation, the nude mice were dislocated and photographed, and then the tumor was peeled off, weighed and photographed. RTV (relative tumor volume) and tumor inhibition rate were calculated. At the same time, the peripheral blood of nude mice was taken to count blood cells.
(§9) The data were processed by EXCEL software and expressed by Mean±SD, and the inter-group analysis was statistically processed using t test.

[2] = Drug preparation: dissolving in physiological saline; type: physicochemical; conditions: 3.0 mg/ml (Example 14: 5.0 mg/ml) in sterile physiological saline
Experimental: as §1, §2, §3, §4, §5, §6, §7

[3] = physchem; conditions: 25 °C, water, thermodynamic from solid
[4] = Body weights of SJSA-1 implanted nude mice (side effects); type: in vivo; conditions: for Body Weights X ± SD (g), End: End (21 days after inoculation), doxorubicin 3.0 mg/kg i.p. x6, rac-SIP 30.0 mg/kg gavage x9, SIP-PEG compounds 30.0 mg/kg i.p. x9, rac-SIP-MPEG-2000 50.0 mg/kg i.p. x9; for Body Weights X ± SD (g), Start: Start of administration, dose per group 3.0/30.0/50.0 mg/kg as in Table 1; for body weight decreased, compared with the solvent control group: SIP-PEG compounds 30.0 mg/kg i.p. (MPEG-2000 50.0 mg/kg), SIP oral 30.0 mg/kg
Experimental: as §8, §9

COCCOCCOCCOC(=O)OC(C)OC(=O)c1ccc(NC(=O)[C@@H]2N[C@@H](CC(C)(C)C)[C@@]3(C(=O)Nc4cc(Cl)ccc43)[C@H]2c2cccc(Cl)c2F)c(OC)c1 (single isomer, unassigned) [chiral-R-SIP-PEG-3]
Tumor volumes X ± SD (mm^3), End [1]: 59.4 ± 46.3*** mm^3
Tumor volumes X ± SD (mm^3), Start [1]: 252.9 ± 68.3 mm^3
inhibitory effect on tumor growth compared with PEG-free rac-SIP given by gastrointestinal administration [1]: stronger inhibitory effect
Weights of Tumor X ± SD [1]: 0.06 ± 0.05 g
Inhibition rate (%) on the basis of tumor volume [1]: 97.90%
Inhibition rate (%) on the basis of tumor volume ([1]; listed as chiral-R-PEG-3): 97.9%
Inhibition rate (%) on the basis of tumor weight [1]: 97.84%
dissolving in physiological saline for administration [2]: could be directly dissolved in physiological saline
solubility at 24 h [3]: > 8000 µg/mL
body weight increased, compared with the solvent control group ([4]; 30.0 mg/kg i.p.): about 11%
Body Weights X ± SD (g), End [4]: 19.2 ± 1.2 g
Body Weights X ± SD (g), Start [4]: 17.3 ± 0.9 g

COc1cccc2c1C(=O)c1c(O)c3c(c(O)c1C2=O)C[C@@](O)(C(=O)CO)C[C@@H]3O[C@H]1C[C@H](N)[C@H](O)[C@H](C)O1 [Doxorubicin ADM, Doxorubicin, reference compound]
Tumor volumes X ± SD (mm^3), End [1]: 1401.1 ± 658.2*** mm^3
Tumor volumes X ± SD (mm^3), Start [1]: 241.1 ± 46.6 mm^3
Weights of Tumor X ± SD [1]: 1.41 ± 0.66 g
Inhibition rate (%) on the basis of tumor volume [1]: 50.38%
Inhibition rate (%) on the basis of tumor weight [1]: 48.27%
Body Weights X ± SD (g), End [4]: 13.7 ± 0.7 g
Body Weights X ± SD (g), Start [4]: 17.4 ± 0.7 g

COc1cc(C(N)=O)ccc1NC(=O)[C@@H]1N[C@@H](CC(C)(C)C)C2(C(=O)Nc3cc(Cl)ccc32)[C@H]1c1cccc(Cl)c1F (mixture of isomers) [rac-SIP, rac-spiroindolinone pyrrolidinecarboxamide, reference compound]
Tumor volumes X ± SD (mm^3), End [1]: 1273.7 ± 506.9*** mm^3
Tumor volumes X ± SD (mm^3), Start [1]: 249.4 ± 59.5 mm^3
Weights of Tumor X ± SD [1]: 1.37 ± 0.55 g
Inhibition rate (%) on the basis of tumor volume [1]: 54.89%
Inhibition rate (%) on the basis of tumor weight [1]: 49.69%
solubility at 24 h [3]: < 100 µg/mL
Body Weights X ± SD (g), End [4]: 14.1 ± 1.6 g
body weight decreased, compared with the solvent control group [4]: about 18%
Body Weights X ± SD (g), Start [4]: 17.1 ± 0.8 g

COCCOCCOC(=O)OC(C)OC(=O)c1ccc(NC(=O)[C@@H]2N[C@@H](CC(C)(C)C)[C@@]3(C(=O)Nc4cc(Cl)ccc43)[C@H]2c2cccc(Cl)c2F)c(OC)c1 (mixture of isomers) [rac-SIP-PEG-2, Rac-9-oxo-2,5,8,10-tetraoxadodecan-11-yl-4-((2′S,3R,4′S,5′R)-6-chloro-4′-(3-chloro-2-fluorophenyl)-2′-neopentyl-2-oxospiro[indoline-3,3′-pyrrolidine]-5′-carboxamido)-3-methoxybenzoate]
Tumor volumes X ± SD (mm^3), End [1]: 1260.8 ± 597.6*** mm^3
Tumor volumes X ± SD (mm^3), Start [1]: 242.6 ± 49.9 mm^3
inhibitory effect on tumor growth compared with PEG-free rac-SIP given by gastrointestinal administration [1]: slightly better inhibitory effect
Weights of Tumor X ± SD [1]: 1.35 ± 0.64 g
Inhibition rate (%) on the basis of tumor volume [1]: 55.36%
Inhibition rate (%) on the basis of tumor weight [1]: 50.55%
solubility at 24 h [3]: > 400 µg/mL
Body Weights X ± SD (g), End [4]: 15.4 ± 1.0 g
body weight decreased, compared with the solvent control group [4]: about 9.4%
Body Weights X ± SD (g), Start [4]: 17.0 ± 1.1 g

COCCOCCOCCOCCOCCOCCOCCOC(=O)OC(C)OC(=O)c1ccc(NC(=O)[C@@H]2N[C@@H](CC(C)(C)C)[C@@]3(C(=O)Nc4cc(Cl)ccc43)[C@H]2c2cccc(Cl)c2F)c(OC)c1 (mixture of isomers) [rac-SIP-PEG-7, Rac-24-oxo-2,5,8,11,14,17,20,23,25-nonoxaheptacosan-26-yl-4-((2′S,3R,4′S,5′R)-6-chloro-4′-(3-chloro-2-fluorophenyl)-2′-neopentyl-2-oxospiro[indoline-3,3′-pyrrolidine]-5′-carboxamido)-3-methoxybenzoate]
Tumor volumes X ± SD (mm^3), End [1]: 93.2 ± 65.2*** mm^3
Tumor volumes X ± SD (mm^3), Start [1]: 247.6 ± 57.4 mm^3
inhibitory effect on tumor growth compared with PEG-free rac-SIP given by gastrointestinal administration [1]: stronger inhibitory effect
Weights of Tumor X ± SD [1]: 0.08 ± 0.14 g
Inhibition rate (%) on the basis of tumor volume [1]: 96.38%
Inhibition rate (%) on the basis of tumor weight [1]: 97.06%
dissolving in physiological saline for administration [2]: could be directly dissolved in physiological saline
solubility at 24 h [3]: 30000 µg/mL (≈ 29.3 mM)
Body Weights X ± SD (g), End [4]: 16.1 ± 1.6 g
body weight decreased, compared with the solvent control group [4]: about 6.4%
Body Weights X ± SD (g), Start [4]: 17.1 ± 0.7 g

COc1cc(C(=O)O)ccc1NC(=O)[C@@H]1N[C@@H](CC(C)(C)C)[C@@]2(C(=O)Nc3cc(Cl)ccc32)[C@H]1c1cccc(Cl)c1F (racemic) [rac-SIP-acid, rac-4-((2′S,3′R,4′S,5′R)-6-chloro-4′-(3-chloro-2-fluorophenyl)-2′-neopentyl-2-oxospiro[indoline-3,3′-pyrrolidine]-5′-carboxamido)-3-methoxybenzoic acid, reference compound]
solubility at 24 h [3]: < 100 µg/mL

Rac-4-((2′S,3′R,4′S,5′R)-6-chloro-4′-(3-chloro-2-fluorophenyl)-2′-neopentyl-2-oxospiro[indoline-3,3′-pyrrolidine]-5′-carboxamido)-3-methoxybenzoic acid methoxy polyethylene glycol 2000 carbonate [rac-SIP-MPEG-2000]
Tumor volumes X ± SD (mm^3), End [1]: 102.5 ± 58.5*** mm^3
Tumor volumes X ± SD (mm^3), Start [1]: 251.3 ± 39.8 mm^3
inhibitory effect on tumor growth compared with PEG-free rac-SIP given by gastrointestinal administration [1]: stronger inhibitory effect
Weights of Tumor X ± SD [1]: 0.09 ± 0.09 g
Inhibition rate (%) on the basis of tumor volume [1]: 96.02%
Inhibition rate (%) on the basis of tumor weight [1]: 96.70%
dissolving in physiological saline for administration [2]: could be directly dissolved in physiological saline
Body Weights X ± SD (g), End [4]: 16.3 ± 1.5 g
body weight decreased, compared with the solvent control group [4]: about 5.2%
Body Weights X ± SD (g), Start [4]: 17.4 ± 1.0 g

COCCOCCOCCOC(=O)OC(C)OC(=O)c1ccc(NC(=O)[C@@H]2N[C@@H](CC(C)(C)C)[C@@]3(C(=O)Nc4cc(Cl)ccc43)[C@H]2c2cccc(Cl)c2F)c(OC)c1 (mixture of isomers) [rac-SIP-PEG-3, Rac-12-oxo-2,5,8,11,13-pentaoxapentadecan-14-yl-4-((2′S,3R,4′S,5′R)-6-chloro-4′-(3-chloro-2-fluorophenyl)-2′-neopentyl-2-oxospiro[indoline-3,3′-pyrrolidine]-5′-carboxamido)-3-methoxybenzoate]
Tumor volumes X ± SD (mm^3), End [1]: 260.1 ± 219.3*** mm^3
Tumor volumes X ± SD (mm^3), Start [1]: 246.4 ± 23.6 mm^3
inhibitory effect on tumor growth compared with PEG-free rac-SIP given by gastrointestinal administration [1]: stronger inhibitory effect
Weights of Tumor X ± SD [1]: 0.20 ± 0.20 g
Inhibition rate (%) on the basis of tumor volume [1]: 90.79%
Inhibition rate (%) on the basis of tumor weight [1]: 92.86%
dissolving in physiological saline for administration [2]: could be directly dissolved in physiological saline
solubility at 24 h [3]: > 3000 µg/mL
Body Weights X ± SD (g), End [4]: 15.9 ± 1.8 g
body weight decreased, compared with the solvent control group [4]: about 7.5%
Body Weights X ± SD (g), Start [4]: 17.2 ± 0.7 g
